Measured values reported in ChEMBL document CHEMBL5260817, “Polyamine-based analogs and conjugates as antikinetoplastid agents” (Eur J Med Chem, 2017).
Values belong to the compound of their own block, whether it stands above or below them.

Key:
Trypanosoma brucei [1] = assay: Antiprotozoal activity against Trypanosoma brucei infected in HepG2 cells; assay type: functional, organism-based
Leishmania infantum [2] = assay: Antiprotozoal activity against Leishmania infantum promastigotes measured after 5 days; assay type: functional, organism-based; details: 120 h
Leishmania infantum [3] = assay: Antiprotozoal activity against Leishmania infantum amastigotes measured after 5 days; assay type: functional, organism-based; details: 120 h
[4] = Inhibition of Trypanosoma cruzi recombinant N-terminal His-tag TryS in presence of ATP
[5] = Inhibition of Leishmania infantum recombinant N-terminal His-tag TryS in presence of ATP
[6] = Inhibition of Trypanosoma brucei recombinant N-terminal His-tag TryS in presence of ATP
[7] = Inhibition of Leishmania infantum His tagged TryS in presence of ATP by LDH/PK assay
Leishmania infantum [8] = assay: Antiprotozoal activity against Leishmania infantum; assay type: functional, organism-based
[9] = Inhibition of Trypanosoma brucei His tagged TryS in presence of ATP by LDH/PK assay
Trypanothione synthetase = Trypanothione synthetase (Crithidia fasciculata, UniProt O60993); assay: Inhibition of Crithidia fasciculata His tagged TryS in presence of ATP by LDH/PK assay
[10] = tested on: Trypanosoma brucei brucei; assay: Antiprotozoal activity against Trypanosoma brucei brucei Lab 110 EATRO strain; assay type: functional, organism-based
Leishmania donovani [11] = assay: Antiprotozoal activity against Leishmania donovani promastigote measured after 72 hrs by LDH assay; assay type: functional, organism-based
Trypanosoma brucei [12] = assay: Antiprotozoal activity against Trypanosoma brucei clone 427-221a; assay type: functional, organism-based
HL-60 = assay: Anticancer activity against human HL-60 cells assessed as cell growth inhibition by trypan blue staining based assay; assay type: functional
Leishmania major = assay: Antiprotozoal activity against Leishmania major amastigotes; assay type: functional, organism-based
[13] = Inhibition of TryR (unknown origin); assay type: functional
[14] = tested on: Trypanosoma brucei rhodesiense; assay: Antiprotozoal activity against Trypanosoma brucei rhodesiense STIB900 strain; assay type: functional, organism-based
L6 = assay: Anticancer activity against rat L6 cells assessed as cell growth inhibition; assay type: functional, cell-based
Trypanothione reductase = Trypanothione reductase (Trypanosoma brucei brucei, UniProt P39051); assay: Inhibition of Trypanosoma brucei TryR
Trypanosoma brucei [15] = assay: Trypanocidal activity against Trypanosoma brucei; assay type: functional, organism-based
[16] = Inhibition of Trypanosoma brucei rhodesiense TryR
[17] = Inhibition of Trypanosoma brucei MetRS in presence of ATP
Trypanosoma brucei [18] = assay: Trypanocidal activity against Trypanosoma brucei trypomastigotes; assay type: functional, organism-based
[19] = Anticancer activity against human CRL-8155 cells assessed as cell growth inhibition; assay type: functional, cell-based; details: CRL8155
[20] = Half life in BALB/c mouse plasma infected with Trypanosoma brucei 427 strain at 25 mg/kg/day, sc measured after 3 days; assay type: ADME, organism-based; details: time 3 day
Leishmania donovani [21] = assay: Antiprotozoal activity against Leishmania donovani promastigote at 10 uM relative to control; assay type: functional
Trypanosoma cruzi = assay: Antiprotozoal activity against Trypanosoma cruzi amastigotes infected in mouse Peritoneal macrophage cells assessed as growth inhibition at 1.56 uM relative to control; assay type: functional

Sequence of Trypanothione synthetase (O60993 whole entry): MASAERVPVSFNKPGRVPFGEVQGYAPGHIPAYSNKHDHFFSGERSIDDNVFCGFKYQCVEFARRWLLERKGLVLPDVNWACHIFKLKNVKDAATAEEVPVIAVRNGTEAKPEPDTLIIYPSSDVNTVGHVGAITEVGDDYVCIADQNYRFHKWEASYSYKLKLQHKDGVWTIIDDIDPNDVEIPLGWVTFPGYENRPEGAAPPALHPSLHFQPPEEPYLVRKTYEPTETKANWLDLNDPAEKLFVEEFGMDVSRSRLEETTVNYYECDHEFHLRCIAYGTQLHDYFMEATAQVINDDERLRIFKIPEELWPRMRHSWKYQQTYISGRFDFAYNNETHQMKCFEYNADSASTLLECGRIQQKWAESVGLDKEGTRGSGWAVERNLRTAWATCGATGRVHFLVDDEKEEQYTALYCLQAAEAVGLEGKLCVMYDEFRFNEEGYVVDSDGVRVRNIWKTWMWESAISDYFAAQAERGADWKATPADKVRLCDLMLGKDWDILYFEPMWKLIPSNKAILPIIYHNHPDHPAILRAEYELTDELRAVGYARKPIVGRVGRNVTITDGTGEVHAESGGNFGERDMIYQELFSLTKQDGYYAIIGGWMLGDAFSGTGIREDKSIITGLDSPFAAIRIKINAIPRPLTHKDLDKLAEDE
Sequence of Trypanothione reductase (P39051 whole entry): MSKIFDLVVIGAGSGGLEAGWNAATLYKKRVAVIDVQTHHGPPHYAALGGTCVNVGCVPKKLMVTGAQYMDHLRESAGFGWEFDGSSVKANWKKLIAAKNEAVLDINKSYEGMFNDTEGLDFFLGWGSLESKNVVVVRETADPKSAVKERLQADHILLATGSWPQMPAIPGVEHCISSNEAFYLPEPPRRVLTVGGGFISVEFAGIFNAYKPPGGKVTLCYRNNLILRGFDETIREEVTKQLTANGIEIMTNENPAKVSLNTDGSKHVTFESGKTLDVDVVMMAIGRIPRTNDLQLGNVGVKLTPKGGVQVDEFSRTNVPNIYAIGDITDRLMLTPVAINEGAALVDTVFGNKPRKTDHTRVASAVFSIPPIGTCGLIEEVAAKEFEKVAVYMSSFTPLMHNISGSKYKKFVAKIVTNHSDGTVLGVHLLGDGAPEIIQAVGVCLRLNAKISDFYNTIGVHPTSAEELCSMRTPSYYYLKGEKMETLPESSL

Structure (SMILES): COc1ccc(CNCCNCc2ccc(OC)cc2)cc1
- IC50 (Trypanosoma brucei [1]): ≤ 10000 nM

Structure (SMILES): CC(C)c1ccc(CNCCCCCCCCCCNCc2ccc(C(C)C)cc2)cc1
- IC50 [4]: 30000 nM
- IC50 [5]: 30000 nM
- IC50 [6]: 30000 nM

Structure (SMILES): CNCCNC(=O)CN1C(=O)Cc2c([nH]c3ccc(Br)cc23)-c2ccc(Cl)cc21
- IC50 [7]: 150 nM
- IC50 (Leishmania infantum [8]): 12600 nM
- IC50 [9]: 59000 nM
- IC50 (Trypanothione synthetase): 30 nM

Structure (SMILES): N=C(NC1CCCCCC1)c1ccc(N2CCN(c3ccc(C(=N)NC4CCCCCC4)cc3)CC2)cc1
- IC50 [10]: 18 nM
- IC50 (Leishmania donovani [11]): 4760 nM

Structure (SMILES): COc1ccc2nc3cc(Cl)ccc3c(NCCCN(C)CCCNc3c4ccc(Cl)cc4nc4ccc(OC)cc34)c2c1
- IC50 (Trypanosoma brucei [12]): 1 nM
- IC50 (HL-60): 1000 nM
- IC50 (Leishmania major): 6000 nM

Structure (SMILES): C[N+](C)(CCCNc1cc(Cl)ccc1Sc1ccccc1)Cc1ccc(Cl)c(Cl)c1
- IC50 [16]: 5000 nM

Structure (SMILES): COc1ccc2nc3cc(Cl)ccc3c(NCCCCCCCCNc3c4ccc(Cl)cc4nc4ccc(OC)cc34)c2c1
- inhibition at 10 µM (Leishmania donovani [21]): 99%
- inhibition at 1.56 µM (Trypanosoma cruzi): 70%

The next lines start with results.

- IC50 (Leishmania infantum [2]): 1000 nM
- IC50 (Leishmania infantum [3]): 1000 nM
Structure (SMILES): O=C1c2cccc3cccc(c23)C(=O)N1CCCNCCCCNCCCN1C(=O)c2cccc3cccc(c23)C1=O

- IC50 [13]: 9000 nM
- IC50 [14]: 600 nM
Structure (SMILES): C[N+](C)(CCCNc1cc(Cl)ccc1Sc1ccccc1)Cc1ccc([N+](=O)[O-])o1
- IC50 (L6): > 170000 nM

- IC50 (Trypanothione reductase): 750 nM
Structure (SMILES): Clc1ccc2c(c1)N(CCCN1CCN(CCCc3ccccc3)CC1)c1ccccc1S2
- IC50 (Trypanosoma brucei [15]): 770 nM

- half-life [20]: 1 h
Structure (SMILES): Oc1cc(NCCCNCc2cc(Cl)cc(Cl)c2)nc2ccccc12
- IC50 [17]: 8 nM
- IC50 (Trypanosoma brucei [18]): 4 nM
- IC50 [19]: > 20000 nM
